Assay results taken from ChEMBL document CHEMBL1201862, “PubChem BioAssay data set” (2004).
Activity calls are given as the source filed them.

Columns and labels:
Tumor necrosis factor = Tumor necrosis factor (Homo sapiens, UniProt P01375); experiment: TNFa-triggered NF-kB activation inhibitors, SAR follow-up, cell-based, revised (AID 2337); type: functional
[1] = THP-1 cell cytotoxicity, dose response, cytotoxicity control for non-replicating M. tuberculosis project (AID 489025); type: functional
[2] = target: T1, Nucleotide-binding oligomerization domain-containing protein 1 (Homo sapiens, UniProt Q9Y239); experiment: NOD1 signaling inhibitors, SAR follow-up, revised (AID 2333); type: functional
T1 sequence (Q9Y239 whole entry): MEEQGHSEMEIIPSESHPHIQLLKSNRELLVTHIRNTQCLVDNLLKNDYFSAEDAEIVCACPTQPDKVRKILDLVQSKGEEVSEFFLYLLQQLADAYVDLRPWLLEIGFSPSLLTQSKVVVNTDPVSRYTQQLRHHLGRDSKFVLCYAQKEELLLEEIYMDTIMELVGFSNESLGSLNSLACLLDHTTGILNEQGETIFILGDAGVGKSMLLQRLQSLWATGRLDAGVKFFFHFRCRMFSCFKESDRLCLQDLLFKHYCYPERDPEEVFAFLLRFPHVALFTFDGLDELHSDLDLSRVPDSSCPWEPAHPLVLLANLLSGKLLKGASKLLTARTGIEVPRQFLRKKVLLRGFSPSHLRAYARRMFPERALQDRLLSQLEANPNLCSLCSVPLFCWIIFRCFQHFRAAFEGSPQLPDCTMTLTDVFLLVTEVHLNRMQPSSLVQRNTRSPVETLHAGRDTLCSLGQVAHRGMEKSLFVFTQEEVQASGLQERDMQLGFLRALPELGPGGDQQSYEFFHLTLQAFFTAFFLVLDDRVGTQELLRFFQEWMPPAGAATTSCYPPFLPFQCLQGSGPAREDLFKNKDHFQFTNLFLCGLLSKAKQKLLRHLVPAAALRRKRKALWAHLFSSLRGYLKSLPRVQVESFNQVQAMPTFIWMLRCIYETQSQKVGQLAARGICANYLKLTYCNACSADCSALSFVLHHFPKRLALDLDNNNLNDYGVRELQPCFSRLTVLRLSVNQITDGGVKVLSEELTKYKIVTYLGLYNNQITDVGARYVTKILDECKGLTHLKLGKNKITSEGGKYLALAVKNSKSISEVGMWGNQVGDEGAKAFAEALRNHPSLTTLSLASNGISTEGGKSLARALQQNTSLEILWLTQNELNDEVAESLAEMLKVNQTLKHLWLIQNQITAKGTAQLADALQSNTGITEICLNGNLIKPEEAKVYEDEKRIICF

[3] = HepG2 cell cytotoxicity, dose response, cytotoxicity control for non-replicating M. tuberculosis project (AID 489018); type: functional; conditions: Mycobacterium tuberculosis
[4] = Vero E6 cell cytotoxicity, dose response, cytotoxicity control for non-replicating M. tuberculosis project, secondary assay (AID 492998); type: functional, VeroE6; conditions: Vero C1008
[5] = target: Nucleotide-binding oligomerization domain-containing protein 2 (Homo sapiens, UniProt Q9HC29); experiment: PubChem AID 2334; type: functional
cells = type: functional
HEK293 [6] = experiment: cells; conditions: Homo sapiens
Mu-type opioid receptor [7] = target: T2, Mu-type opioid receptor (Homo sapiens, UniProt P35372); experiment: MOR agonists by imaging, SAR follow-up, image-based (AID 2352); type: functional
T2 sequence (P35372 whole entry): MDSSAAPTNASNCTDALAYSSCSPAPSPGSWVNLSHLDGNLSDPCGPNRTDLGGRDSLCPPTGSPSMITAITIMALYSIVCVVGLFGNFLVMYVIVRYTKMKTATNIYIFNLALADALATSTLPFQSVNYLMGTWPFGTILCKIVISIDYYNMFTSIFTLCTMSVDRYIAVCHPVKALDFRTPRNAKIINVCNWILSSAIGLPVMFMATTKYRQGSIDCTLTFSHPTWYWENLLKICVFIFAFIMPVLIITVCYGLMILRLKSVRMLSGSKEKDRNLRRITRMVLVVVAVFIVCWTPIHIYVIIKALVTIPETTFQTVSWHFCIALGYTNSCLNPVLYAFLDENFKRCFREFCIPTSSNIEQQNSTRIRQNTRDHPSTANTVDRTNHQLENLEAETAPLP

[8] = target: T3, Delta-type opioid receptor (Homo sapiens, UniProt P41143); experiment: DOR agonists, SAR follow-up, image-based (AID 2370); type: functional
T3 sequence (P41143 whole entry): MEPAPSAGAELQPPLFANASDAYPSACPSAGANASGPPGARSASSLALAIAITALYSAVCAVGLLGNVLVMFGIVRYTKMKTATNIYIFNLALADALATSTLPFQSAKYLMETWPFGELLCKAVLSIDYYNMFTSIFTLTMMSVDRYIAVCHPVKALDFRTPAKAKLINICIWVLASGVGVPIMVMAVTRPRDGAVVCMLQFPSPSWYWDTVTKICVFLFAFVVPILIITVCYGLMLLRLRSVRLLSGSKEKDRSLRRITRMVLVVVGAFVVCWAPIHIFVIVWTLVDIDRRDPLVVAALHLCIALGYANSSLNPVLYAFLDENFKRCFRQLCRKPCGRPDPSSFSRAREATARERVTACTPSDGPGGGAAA

[9] = target: T4, Kappa-type opioid receptor (Homo sapiens, UniProt P41145); experiment: KOR antagonists by imaging, SAR follow-up, image-based (AID 2348); type: functional
T4 sequence (P41145 whole entry): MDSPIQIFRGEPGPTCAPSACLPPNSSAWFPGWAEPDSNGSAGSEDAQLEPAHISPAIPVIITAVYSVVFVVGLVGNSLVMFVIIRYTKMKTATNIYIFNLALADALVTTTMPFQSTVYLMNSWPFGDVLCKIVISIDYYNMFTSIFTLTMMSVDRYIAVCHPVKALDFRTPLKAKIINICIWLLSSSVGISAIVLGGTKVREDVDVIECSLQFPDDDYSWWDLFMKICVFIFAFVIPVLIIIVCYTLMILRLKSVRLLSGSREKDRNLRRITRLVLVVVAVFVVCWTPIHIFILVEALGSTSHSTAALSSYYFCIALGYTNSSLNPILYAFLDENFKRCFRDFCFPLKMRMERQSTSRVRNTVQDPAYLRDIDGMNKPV

Mu-type opioid receptor [10] = target: T2, Mu-type opioid receptor; experiment: MOR antagonists, SAR follow-up, image-based (AID 2420); type: functional;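 also: compounds added before stimulation of receptor with agonist DAMGO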
[11] = target: T4, Kappa-type opioid receptor; experiment: KOR agonist analogs, imaging readout, SAR follow-up, image-based (AID 2359); type: functional
[12] = target: T3, Delta-type opioid receptor; experiment: DOR antagonists, SAR follow-up, image-based (AID 2357); type: functional
[13] = target: T4, Kappa-type opioid receptor; experiment: kappa opioid receptor blockers, cell-based, luminescence, beta-arrestin, SAR follow-up (AID 2285); type: functional
[14] = target: Melanin-concentrating hormone receptor 1 (Homo sapiens, UniProt Q99705); experiment: Fluorescence-based counterscreen for antagonists of the G-protein coupled receptor 7 (GPR7): cell-based high throughput dose response assay to identify antagonists of the melanin-concentrating hormone receptor 1 (MCHR1).; type: functional
[15] = target: T5, Neuropeptide Y receptor type 2 (Homo sapiens, UniProt P49146); experiment: Fluorescence-based counterscreen for agonists of NPY-Y1: cell-based high-throughput dose response assay for agonists of NPY-Y2.; type: functional
T5 sequence (P49146 whole entry): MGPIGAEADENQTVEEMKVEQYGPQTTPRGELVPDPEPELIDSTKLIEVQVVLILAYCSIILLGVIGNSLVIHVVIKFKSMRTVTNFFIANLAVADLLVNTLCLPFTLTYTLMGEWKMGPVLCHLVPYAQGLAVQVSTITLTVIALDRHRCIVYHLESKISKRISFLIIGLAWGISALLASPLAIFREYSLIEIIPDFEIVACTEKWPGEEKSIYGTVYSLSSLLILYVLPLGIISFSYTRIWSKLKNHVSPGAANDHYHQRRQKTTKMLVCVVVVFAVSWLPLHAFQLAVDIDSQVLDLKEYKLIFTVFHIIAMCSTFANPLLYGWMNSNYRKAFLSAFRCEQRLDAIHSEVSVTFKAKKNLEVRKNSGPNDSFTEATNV

HEK293 [16] = experiment: Fluorescence-based counterscreen for potentiators or agonists of NPY-Y1: cell-based high-throughput dose response assay for inhibitors of cyclic nucleotide gated ion channel (CNGC) activity. In this assay, the parental HEK293 cell line transfected with a cyclic-nucleotide gated ion channel (CNGC)-based cAMP sensor is used to measure inhibition of isoproterenol-induced CNGC …; type: functional; conditions: Homo sapiens
[17] = target: T6, Neuropeptide Y receptor type 1 (Homo sapiens, UniProt P25929); experiment: Fluorescence-based dose response cell-based high-throughput screening assay for agonists of NPY-Y1. [Related pubchem assays: 1697 (Screening assay (NPY-Y1 agonists).), 1359 (Screening assay (NPY-Y2 potentiators or agonists).), 1304 (Screening assay (NPY-Y1 potentiators or agonists).), 1704 (Screening assay (CNGC inhibitors).), 1791 (Summary AID.)]; type: functional
T6 sequence (P25929 whole entry): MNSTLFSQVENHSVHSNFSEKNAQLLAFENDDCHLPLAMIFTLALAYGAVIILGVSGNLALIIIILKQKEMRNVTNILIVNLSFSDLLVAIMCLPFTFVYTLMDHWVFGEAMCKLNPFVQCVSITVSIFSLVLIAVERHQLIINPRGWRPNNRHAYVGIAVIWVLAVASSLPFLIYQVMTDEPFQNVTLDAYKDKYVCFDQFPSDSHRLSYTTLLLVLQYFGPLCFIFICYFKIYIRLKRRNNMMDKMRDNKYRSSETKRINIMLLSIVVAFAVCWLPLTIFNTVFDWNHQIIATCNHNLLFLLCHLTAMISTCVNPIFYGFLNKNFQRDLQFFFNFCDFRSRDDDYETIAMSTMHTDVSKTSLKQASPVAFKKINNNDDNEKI

[18] = target: Photoreceptor-specific nuclear receptor (Homo sapiens, UniProt Q9Y5X4); type: functional;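 also: potency for compounds that break the NR2E3 corepressor complex and count as activators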
Sequence of Photoreceptor-specific nuclear receptor (Q9Y5X4 whole entry): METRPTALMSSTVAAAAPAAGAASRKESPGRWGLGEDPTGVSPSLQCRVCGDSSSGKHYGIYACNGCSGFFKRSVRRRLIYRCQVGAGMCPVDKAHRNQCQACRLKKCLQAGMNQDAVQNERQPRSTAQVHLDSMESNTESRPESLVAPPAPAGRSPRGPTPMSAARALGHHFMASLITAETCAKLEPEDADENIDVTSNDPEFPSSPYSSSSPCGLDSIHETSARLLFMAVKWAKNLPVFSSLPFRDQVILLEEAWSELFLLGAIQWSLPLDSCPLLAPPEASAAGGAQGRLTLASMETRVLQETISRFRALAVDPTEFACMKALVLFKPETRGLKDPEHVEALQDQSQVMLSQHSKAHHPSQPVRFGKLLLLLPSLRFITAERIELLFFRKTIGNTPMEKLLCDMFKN

[19] = target: Peroxisome proliferator-activated receptor gamma/Nuclear receptor corepressor 2 (Homo sapiens, UniProt P37231+Q9Y618); type: functional
Sequence of Peroxisome proliferator-activated receptor gamma/Nuclear receptor corepressor 2 (P37231 whole entry): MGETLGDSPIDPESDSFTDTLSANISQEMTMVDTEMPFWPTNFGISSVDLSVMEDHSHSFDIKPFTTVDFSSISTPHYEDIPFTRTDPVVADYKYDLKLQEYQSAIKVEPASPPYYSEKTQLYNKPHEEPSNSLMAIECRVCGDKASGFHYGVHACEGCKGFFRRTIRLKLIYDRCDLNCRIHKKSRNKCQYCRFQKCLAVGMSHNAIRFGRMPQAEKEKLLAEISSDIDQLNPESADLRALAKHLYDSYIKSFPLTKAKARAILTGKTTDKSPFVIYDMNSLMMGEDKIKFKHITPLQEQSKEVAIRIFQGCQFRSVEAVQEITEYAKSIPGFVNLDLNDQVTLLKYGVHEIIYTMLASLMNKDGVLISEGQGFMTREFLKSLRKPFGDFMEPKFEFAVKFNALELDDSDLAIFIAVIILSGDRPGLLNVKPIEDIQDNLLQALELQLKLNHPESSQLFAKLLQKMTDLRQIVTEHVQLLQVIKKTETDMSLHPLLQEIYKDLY
Sequence of Peroxisome proliferator-activated receptor gamma/Nuclear receptor corepressor 2 (Q9Y618 whole entry): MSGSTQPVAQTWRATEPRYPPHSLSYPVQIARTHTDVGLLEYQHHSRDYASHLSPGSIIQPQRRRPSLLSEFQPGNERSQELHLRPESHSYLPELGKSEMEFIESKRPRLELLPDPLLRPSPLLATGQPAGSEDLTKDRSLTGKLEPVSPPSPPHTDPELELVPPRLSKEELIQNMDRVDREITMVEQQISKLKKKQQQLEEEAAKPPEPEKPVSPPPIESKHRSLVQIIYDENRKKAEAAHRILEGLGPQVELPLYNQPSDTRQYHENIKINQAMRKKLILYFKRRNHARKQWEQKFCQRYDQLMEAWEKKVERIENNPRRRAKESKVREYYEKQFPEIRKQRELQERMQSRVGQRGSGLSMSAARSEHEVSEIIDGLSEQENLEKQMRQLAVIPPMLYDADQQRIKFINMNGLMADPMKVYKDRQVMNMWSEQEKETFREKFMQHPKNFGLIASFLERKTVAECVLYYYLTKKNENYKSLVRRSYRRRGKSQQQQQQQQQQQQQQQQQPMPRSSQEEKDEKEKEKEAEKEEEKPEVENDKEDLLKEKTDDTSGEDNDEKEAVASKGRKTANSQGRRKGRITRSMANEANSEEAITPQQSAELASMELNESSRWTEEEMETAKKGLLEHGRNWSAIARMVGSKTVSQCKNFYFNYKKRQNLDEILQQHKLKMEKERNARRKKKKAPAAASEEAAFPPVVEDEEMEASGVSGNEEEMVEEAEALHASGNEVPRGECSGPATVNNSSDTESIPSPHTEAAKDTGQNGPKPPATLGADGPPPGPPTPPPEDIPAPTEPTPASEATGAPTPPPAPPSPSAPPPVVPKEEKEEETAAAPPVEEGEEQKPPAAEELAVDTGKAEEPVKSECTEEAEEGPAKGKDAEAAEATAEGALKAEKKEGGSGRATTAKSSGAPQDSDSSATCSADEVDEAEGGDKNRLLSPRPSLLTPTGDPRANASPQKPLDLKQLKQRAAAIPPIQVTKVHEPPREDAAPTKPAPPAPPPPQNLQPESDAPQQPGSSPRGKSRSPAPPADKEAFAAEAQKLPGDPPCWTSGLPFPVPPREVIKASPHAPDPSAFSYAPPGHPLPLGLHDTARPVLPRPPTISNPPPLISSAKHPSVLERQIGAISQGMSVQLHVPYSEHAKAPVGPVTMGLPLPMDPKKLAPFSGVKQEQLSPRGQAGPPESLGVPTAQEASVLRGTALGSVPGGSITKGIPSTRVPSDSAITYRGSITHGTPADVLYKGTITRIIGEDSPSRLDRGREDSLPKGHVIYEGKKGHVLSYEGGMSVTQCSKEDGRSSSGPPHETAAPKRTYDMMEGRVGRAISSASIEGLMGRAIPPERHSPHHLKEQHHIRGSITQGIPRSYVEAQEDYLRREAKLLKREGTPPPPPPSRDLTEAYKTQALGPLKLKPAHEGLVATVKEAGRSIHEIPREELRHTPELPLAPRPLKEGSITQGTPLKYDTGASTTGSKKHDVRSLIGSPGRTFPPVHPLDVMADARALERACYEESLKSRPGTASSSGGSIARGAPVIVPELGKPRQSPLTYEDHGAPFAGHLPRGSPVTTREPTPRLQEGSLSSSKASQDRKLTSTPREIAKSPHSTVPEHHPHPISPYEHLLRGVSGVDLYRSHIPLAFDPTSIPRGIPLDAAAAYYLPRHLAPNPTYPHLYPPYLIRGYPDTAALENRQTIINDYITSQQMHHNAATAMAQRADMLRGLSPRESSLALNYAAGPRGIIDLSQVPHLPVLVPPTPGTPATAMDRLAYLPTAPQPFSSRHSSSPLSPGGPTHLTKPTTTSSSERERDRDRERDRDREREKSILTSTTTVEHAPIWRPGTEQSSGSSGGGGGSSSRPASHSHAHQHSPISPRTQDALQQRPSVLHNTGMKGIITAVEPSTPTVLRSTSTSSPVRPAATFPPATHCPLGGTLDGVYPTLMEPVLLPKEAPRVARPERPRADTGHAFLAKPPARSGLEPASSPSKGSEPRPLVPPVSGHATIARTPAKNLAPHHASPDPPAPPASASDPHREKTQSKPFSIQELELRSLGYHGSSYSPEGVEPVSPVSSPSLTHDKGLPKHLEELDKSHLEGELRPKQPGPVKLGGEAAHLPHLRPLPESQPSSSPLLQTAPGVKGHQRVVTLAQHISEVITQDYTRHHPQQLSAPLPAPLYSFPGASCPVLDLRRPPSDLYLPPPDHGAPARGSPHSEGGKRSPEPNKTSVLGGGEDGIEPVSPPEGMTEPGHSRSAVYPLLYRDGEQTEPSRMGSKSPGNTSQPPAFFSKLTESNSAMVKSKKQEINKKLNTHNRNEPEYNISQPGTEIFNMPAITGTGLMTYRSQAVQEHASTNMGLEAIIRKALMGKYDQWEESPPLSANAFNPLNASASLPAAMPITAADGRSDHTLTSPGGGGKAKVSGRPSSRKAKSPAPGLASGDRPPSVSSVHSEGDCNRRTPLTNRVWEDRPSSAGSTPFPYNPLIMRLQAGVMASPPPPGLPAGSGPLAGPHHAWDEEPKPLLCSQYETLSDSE

[20] = target: Dual specificity protein phosphatase 3 (Homo sapiens, UniProt P51452); experiment: VHR1 inhibitor Ki determination, SAR follow-up, biochemical, colorimetric (AID 2004)
[21] = target: T4, Kappa-type opioid receptor; experiment: SAR analysis of small molecule agonists of the kappa opioid receptor via a luminescent beta-arrestin assay. [Related pubchem assays (depositor defined):AID1777, AID1786, AID1966, AID2133, AID2136, AID2348, AID2352, AID2357, AID2359, AID2370, AID2420, AID2478, AID2491, AID2492, AID2493, AID2497, AID2498, AID2500, AID449737, AID488822, AID488842]; type: functional
Cytochrome P450 2C9 = Cytochrome P450 2C9 (Homo sapiens, UniProt P11712); conditions: Potency
Protein Rev = Protein Rev (Human immunodeficiency virus type 1 group M subtype B (isolate WMJ22)(HIV-1), UniProt P05866); experiment: HIV-1 Rev-RRE RNA binding disruptors, dose response, biochemical, protein-RNA interaction (AID 842); set-up: species or system Human immunodeficiency virus 1
Sequence of Protein Rev (P05866 whole entry): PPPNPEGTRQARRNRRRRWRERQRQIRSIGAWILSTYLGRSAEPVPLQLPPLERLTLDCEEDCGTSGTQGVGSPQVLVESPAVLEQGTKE

[22] = target: T7, Heat shock factor protein 1 (Mus musculus, UniProt P38532); experiment: inhibition of MG132-induced HSE-luciferase signal, confirmation, cell-based, NIH3T3, luminescence, dose retest (AID 2382); type: functional;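 also: NIH3T3 fibroblasts with HSF1-driven luciferase reporter stressed by proteasome inhibitor MG132; luminescence from HSF1-driven luciferase expression after 8 hours of MG132 stress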
T7 sequence (P38532 whole entry): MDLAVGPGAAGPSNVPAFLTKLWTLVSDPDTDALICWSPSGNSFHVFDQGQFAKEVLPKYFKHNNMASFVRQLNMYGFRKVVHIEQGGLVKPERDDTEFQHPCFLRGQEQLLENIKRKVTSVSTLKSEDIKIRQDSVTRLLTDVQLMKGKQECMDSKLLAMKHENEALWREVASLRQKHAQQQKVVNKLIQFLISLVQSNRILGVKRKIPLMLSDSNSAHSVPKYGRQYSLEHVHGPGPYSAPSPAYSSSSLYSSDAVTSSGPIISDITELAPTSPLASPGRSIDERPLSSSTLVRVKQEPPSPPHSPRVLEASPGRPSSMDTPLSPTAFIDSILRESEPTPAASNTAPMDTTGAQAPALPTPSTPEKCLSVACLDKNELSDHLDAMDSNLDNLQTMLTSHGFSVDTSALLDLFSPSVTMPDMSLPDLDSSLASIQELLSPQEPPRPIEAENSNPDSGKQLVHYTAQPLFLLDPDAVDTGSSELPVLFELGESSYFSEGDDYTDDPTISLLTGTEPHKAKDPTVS

Cytochrome P450 1A2 = target: T8, Cytochrome P450 1A2 (Homo sapiens, UniProt P05177);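 also: PubChem cytochrome P450 panel assay, CYP1A2 panel member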
T8 sequence (P05177 whole entry): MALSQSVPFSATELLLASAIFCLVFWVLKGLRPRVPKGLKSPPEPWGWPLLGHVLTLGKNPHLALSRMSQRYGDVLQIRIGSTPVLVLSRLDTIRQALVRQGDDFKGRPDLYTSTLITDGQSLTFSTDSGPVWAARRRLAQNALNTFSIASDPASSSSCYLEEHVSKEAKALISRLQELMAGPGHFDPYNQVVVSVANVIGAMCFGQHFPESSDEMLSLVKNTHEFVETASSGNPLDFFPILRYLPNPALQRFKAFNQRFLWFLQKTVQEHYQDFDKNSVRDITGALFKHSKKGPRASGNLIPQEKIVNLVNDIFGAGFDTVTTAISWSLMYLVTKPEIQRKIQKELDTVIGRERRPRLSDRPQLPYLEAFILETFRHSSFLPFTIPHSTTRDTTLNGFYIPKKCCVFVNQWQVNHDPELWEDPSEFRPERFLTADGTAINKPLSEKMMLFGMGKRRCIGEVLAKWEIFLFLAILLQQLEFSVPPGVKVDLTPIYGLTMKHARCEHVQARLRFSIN

Cytochrome P450 3A4 = Cytochrome P450 3A4 (Homo sapiens, UniProt P08684);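 also: CYP3A4 tested as one member of a cytochrome P450 panel screen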
[23] = target: Neurotensin receptor type 1 (Homo sapiens, UniProt P30989); type: functional;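 also: Image-based confirmatory dose-response assay measuring agonist activity at NTR1; NTR1-expressing U2OS osteosarcoma cells imaged for beta-arrestin GFP spot formation; agonist potency where compounds increase beta-arrestin recruitment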
[24] = Shn3 3'UTR reporter inhibitors, dose response, cell-based, Clone20 osteoblasts, firefly luciferase, cherry-picked (AID 624132); type: functional;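 also: firefly luciferase luminescence from reporter carrying the Shn3 3'UTR in osteoblasts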
X-box-binding protein 1 = X-box-binding protein 1 (Homo sapiens, UniProt P17861); type: functional, Cricetulus griseus;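 also: confirmatory dose-response counter-screen serving a CHOP assay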

Sequence of Tumor necrosis factor (P01375 whole entry): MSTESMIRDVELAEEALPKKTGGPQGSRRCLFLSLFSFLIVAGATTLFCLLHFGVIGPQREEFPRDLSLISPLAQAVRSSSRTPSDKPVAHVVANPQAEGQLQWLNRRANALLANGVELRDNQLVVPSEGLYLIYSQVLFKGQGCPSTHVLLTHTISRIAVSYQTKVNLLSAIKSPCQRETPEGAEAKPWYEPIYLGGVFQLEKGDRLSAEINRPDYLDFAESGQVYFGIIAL

## CC(=O)Nc1nc2ccccc2n1Cc1ccc(Cl)cc1
Tumor necrosis factor
  IC50: > 20 µM (inactive)
[1]
  CC50: 30.9 µM (active)
[2]
  IC50: 18.8 µM (active)
[3]
  CC50: > 20 µM (active)
[4]
  CC50: 12.9 µM (active)
[5]
  IC50: > 20 µM (inactive)
cells
  IC50: 1.02 µM (active)
HEK293 [6]
  IC50: > 20 µM (inactive)

## O=C(c1ccc(CNS(=O)(=O)c2ccccc2)cc1)N1CCN(Cc2ccccc2)CC1
Mu-type opioid receptor [7]
  EC50: > 32 µM (inactive)
[8]
  EC50: > 32 µM (inactive)
[9]
  IC50: > 32 µM (inactive)
Mu-type opioid receptor [10]
  IC50: > 32 µM (inactive)
[11]
  EC50: > 32 µM (inactive)
[12]
  IC50: > 32 µM (inactive)
[13]
  IC50: > 10 µM (inactive)

## COC(=O)[C@@H](Cc1c[nH]c2ccccc12)NC(=O)CCC(=O)c1ccc(Br)cc1
[14]
  IC50: 24.5 µM (not active)

## COc1ccccc1Oc1ccc(-c2cnc3ccccc3n2)cc1[N+](=O)[O-]
[15]
  EC50: > 35.4 µM (not active)
HEK293 [16]
  IC50: > 35.4 µM (not active)
[17]
  EC50: > 35.4 µM (not active)

## CSc1nc(O)c(C#N)c(-c2ccccc2)n1
[18]
  IC50: > 39.8 µM (not active)
[19]
  IC50: 5.34 µM (active)

## COc1cccc(/C=C2/C(=O)NC(=O)N(c3cccc(C)c3)C2=O)c1O
[20]
  Ki: 33.1 µM (inactive)

## CCCN(Cc1cc2ccc(C)cc2[nH]c1=O)C(=O)c1ccccn1
[21]
  EC50: > 10 µM (inactive)
Mu-type opioid receptor [7]
  EC50: > 32 µM (inactive)
[8]
  EC50: > 32 µM (inactive)
[9]
  IC50: > 32 µM (inactive)
Mu-type opioid receptor [10]
  IC50: > 32 µM (inactive)
[11]
  EC50: > 32 µM (inactive)
[12]
  IC50: > 32 µM (inactive)

## CC(C)(C)c1ccc(OC2C(O)COC2/C=C/C#Cc2ccccc2)cc1 (configuration not stated)
Cytochrome P450 2C9
  AC50: 5.01 µM (inconclusive)

## CC[n+]1c(/C=C/Nc2ccccc2)oc2ccccc21
Protein Rev
  IC50: 5.66 µM (active)
[22]
  EC50: > 195 µM (not active)
Cytochrome P450 1A2
  AC50: 15.8 µM (inconclusive)
Cytochrome P450 3A4
  AC50: 25.1 µM (inconclusive)

## CCOc1cc(/C=C2\C(=O)ON=C2C)ccc1OCc1ccccc1
[23]
  EC50: 13.9 µM (active)
[24]
  AC50: 10.4 µM (active)

## Cc1sc2ncnc(N3CCCCC3C)c2c1C (configuration not stated)
X-box-binding protein 1
  Absolute IC50 (XBP1): 10 µM
